The results in this text go back to patent publication US8697840B2, “Peptide inhibition of lung epithelial apoptosis and pulmonary fibrosis” (Board of Regents, The University of Texas System, priority 2008, dated 2014).

Assay [1] relates to primary small airway epithelial (SAE) cells. In words: SAE cell proliferation, DNA synthesis by [3H]-thymidine uptake. The format is cell-based, human. The conditions noted are these: uPA between 5 and 20 nM; bleomycin 40 μg/ml as positive control. The method, then:
FIGS. 2A-2B is a set of graphs showing dose-dependent induction of primary small airway epithelial (SAE) cell apoptosis and proliferation by uPA. FIG. 2A, SAE cells were treated for 48 h with 0-20 nM uPA at 37° C. Apoptotic cells were analyzed by flow cytometry using anti-annexin-V antibody and propidium iodide (PI). Bleo (40 μg/ml) was used as positive control (90). FIG. 2B, The cells were next treated with uPA as described in FIG. 1A and DNA synthesis was determined by [^3H]-thymidine uptake as described (5).

Another assay relates to p53. Nature of the assay: Western blot of bleo-treated Beas2B cells: p53. The following applies: 40 μg/ml bleo, 28 h. The class given is cell-based, human. The method, then:
(§1) FIG. 4 depicts a set of Western blots showing the show the effect of bleo on uPA, uPAR, PAI-1 and p53 expression in LEC in vitro.
(§2) Beas2B cells were treated for 28 h with PBS or 40 μg/ml of bleo in the presence or absence of uPA or its ATF (20 nM), anti-β1-integrin monoclonal antibody (B1), (which activates β1-integrin by clustering), mouse IgG (mIgG), uPA+B1, uPA+mIgG, PP-1 (10 nM), or scrambled control peptide CP-1 (10 nM) at 37° C. In the case of uPA and PAI-1, the full length uPA was substituted with ATF, because uPA-mediated autoinduction or induction of PAI-1 occurs via the interaction of the ATF with uPAR (3-4). […] The membrane proteins were subjected to Western blotting using anti-uPAR antibody.

Another assay concerns PAI-1. In words: Western blot of bleo-treated Beas2B cells: PAI-1. The format is cell-based, human. The following applies: 40 μg/ml bleo, 28 h. As for the experimental part: as §1, §2
For orientation: A western blot detects proteins with antibodies after separation by electrophoresis.

The test system of another assay is uPA. In words: Western blot of bleo-treated Beas2B cells: uPA. The format is cell-based, human. The following applies: 40 μg/ml bleo, 28 h. As for the experimental part: as §1, §2
For a further assay, the system named is uPAR. In words: Western blot of bleo-treated Beas2B cells: uPAR. The format is cell-based, human. The following applies: 40 μg/ml bleo, 28 h. The method, then:
as §1, §2

In the next assay the test system is Beas2B cells. In words: Bleo-induced apoptosis of Beas2B cells, flow cytometry (anti-Annexin-V antibody and propidium iodide). The class given is cell-based, human. The following applies: 28 h, 40 μg/ml bleo, uPA 20 nM, anti-β1-integrin antibody 1 μg/ml, PP-1 10 nM. As for the experimental part: FIG. 6 is a graph showing apoptosis (% apoptotic cells) after treatment of cells with a β1-integrin activator (anti-β1-integrin antibody), uPA, a combination of the antibody and uPA, or PP-1, along with appropriate controls. Beas2B cells were treated for 28 h with PBS or 40 μg/ml of Bleo in the presence or absence of uPA (20 nM) or PBS as control, with anti-β1-integrin antibody (1 μg/ml, B1), or mouse IgG (mIgG) as control, a combination of the antibody (or control antibody with uPA, and with PP-1 peptide (10 nM) or the CP-1 control peptide (10 nM) as described above at 37° C. Cells were harvested after trypsinization and LEC apoptosis was determined by flow cytometry after exposing the cells to anti-Annexin-V antibody and propidium iodide (as described for FIG. 2A).
Expression of p53 and PAI-1 shown in Example I were correlated with LEC apoptosis induced by bleo (FIG. 6). […] Beas2B cells were treated for 28 h with PBS or 40 μg/ml of bleo (Bleo) with uPA (20 nM), and/or anti-β1-integrin antibody (1 μg/ml, B1), control mouse IgG (mIgG) PP-1 peptide (10 nM) or CP-1 control peptide (10 nM) as described above at 37° C. Cells were trypsinized and LEC apoptosis was determined by flow cytometry after exposing the cells to anti-Annexin-V antibody and propidium iodide (as described for FIG. 2A).

In assay [2] the test system is bleo-induced DNA fragmentation. In words: DNA fragmentation of genomic DNA from mouse lung extracts. The conditions noted are these: i.p. 0.1 ml osmotic minipump, 10 mM peptide, one day after intranasal bleo; lungs after 16 days. The class given is in vivo. The method, then: Alternatively, PP-1 or CP-1 were administered in a continuous manner by i.p. implantation of an 0.1 ml osmotic minipump filled with PP-1 or CP-1 (10 mM or 2.92 mg/100 μl) one day after intranasal instillation of bleo. Lungs were harvested after 16 days. Total dose administered over that period was about 147 mg/kg. The apoptotic scores were calculated by counting the number of apoptotic cells in each field. Genomic DNA was isolated from saline, bleo, Bleo+PP-1 or Bleo+CP-1 mouse lung extracts, and subjected to DNA fragmentation.

“Also recorded” adds a separate entry of the source.

On to Bleomycin, for which, in assay [1], the “cell proliferation of SAE cells” value is “inhibited cell proliferation”. Moreover, in the assay with p53, the p53 expression result is “induced”. In the assay with PAI-1, the PAI-1 expression entry was “induced”. Besides, the uPA expression entry in the assay on uPA is “suppressing”. The uPAR expression entry in the assay with uPAR is listed as “suppressing”.

Turning to “DGIWKASFTTFTVTKYWFYR [PP-1, residues 82-101 of human Cav-1, the caveolin-1 scaffolding domain]”, the “protection of LECs from bleo-induced apoptosis” value in the assay with Beas2B cells was “protected LECs from bleo-induced apoptosis; also recorded: more potent in protecting LECs than was uPA or anti-β1-integrin antibody”. Also, the “bleo-induced DNA fragmentation” value in assay [2] was “protect against bleo-induced LEC apoptosis and DNA fragmentation”.
